Assay results as given in patent US20250171438A1 (Agios Pharmaceuticals, Inc., priority 2022, published 2025).

Target: T1, human PAH with the R408W mutation (Homo sapiens, UniProt P00439, R408W)
T1 construct: expressed in transfected cells
T1 sequence (P00439 1-452 R408W): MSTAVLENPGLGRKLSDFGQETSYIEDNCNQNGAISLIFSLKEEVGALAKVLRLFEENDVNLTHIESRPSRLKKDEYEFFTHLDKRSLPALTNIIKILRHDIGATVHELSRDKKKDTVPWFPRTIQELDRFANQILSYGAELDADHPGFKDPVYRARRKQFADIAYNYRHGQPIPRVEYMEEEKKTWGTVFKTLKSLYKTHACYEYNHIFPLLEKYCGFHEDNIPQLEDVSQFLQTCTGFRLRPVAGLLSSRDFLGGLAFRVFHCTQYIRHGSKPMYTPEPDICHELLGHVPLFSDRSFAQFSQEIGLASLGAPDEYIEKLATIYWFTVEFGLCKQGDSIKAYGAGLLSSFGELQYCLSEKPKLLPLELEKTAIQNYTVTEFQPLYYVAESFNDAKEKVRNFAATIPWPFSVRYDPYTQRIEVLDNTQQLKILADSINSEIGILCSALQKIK
Test: Cell Based Phenylalanine Flux Assay
Conditions: A375 cells expressing human R408W PAH; 24 hrs compound incubation; 13C-Tyrosine by LC-MS; average where tested multiple times; read-out: AC50

AC50 | SMILES
500 to 1000 nM | Cc1nnc(C(=O)N2CCc3[nH]cnc3[C@H]2c2nc3c(F)cccc3s2)o1 [Example 1465, (S)-(4-(4-fluorobenzo[d]thiazol-2-yl)-6,7-dihydro-1H-imidazo[4,5-c]pyridin-5(4H)-yl)(5-methyl-1,3,4-oxadiazol-2-yl)methanone]
1000 to 5000 nM | Cc1nnc(C(=O)N2CCc3[nH]cnc3[C@@H]2c2nc3c(F)cccc3s2)o1 [Example 1466, (R)-(4-(4-fluorobenzo[d]thiazol-2-yl)-6,7-dihydro-1H-imidazo[4,5-c]pyridin-5(4H)-yl)(5-methyl-1,3,4-oxadiazol-2-yl)methanone]
< 500 nM | Cc1nc(C(C)(C)O)oc1C(=O)N1CCc2[nH]cnc2[C@H]1c1nc2ccccc2s1 [Example 1469]
> 5000 nM | Cc1nc(C(C)(C)O)oc1C(=O)N1CCc2[nH]cnc2[C@@H]1c1nc2ccccc2s1 [Example 1470, (R)-(4-(benzo[d]thiazol-2-yl)-6,7-dihydro-1H-imidazo[4,5-c]pyridin-5(4H)-yl)(2-(2-hydroxypropan-2-yl)-4-methyloxazol-5-yl)methanone]
< 500 nM | Cc1nc(C(C)(C)O)oc1C(=O)N1CCc2[nH]cnc2[C@H]1c1nc2c(F)cccc2s1 [Example 1471, (S)-(4-(4-fluorobenzo[d]thiazol-2-yl)-6,7-dihydro-1H-imidazo[4,5-c]pyridin-5(4H)-yl)(2-(2-hydroxypropan-2-yl)-4-methyloxazol-5-yl)methanone]
1000 to 5000 nM | Cc1nc(C(C)(C)O)oc1C(=O)N1CCc2[nH]cnc2[C@@H]1c1nc2c(F)cccc2s1 [Example 1472, (R)-(4-(4-fluorobenzo[d]thiazol-2-yl)-6,7-dihydro-1H-imidazo[4,5-c]pyridin-5(4H)-yl)(2-(2-hydroxypropan-2-yl)-4-methyloxazol-5-yl)methanone]
< 500 nM | CC(C)(O)c1ncc(C(=O)N2CCc3[nH]cnc3[C@H]2c2nc3c(F)cccc3s2)s1 [Example 1477, (S)-(4-(4-fluorobenzo[d]thiazol-2-yl)-6,7-dihydro-1H-imidazo[4,5-c]pyridin-5(4H)-yl)(2-(2-hydroxypropan-2-yl)thiazol-5-yl)methanone]
1000 to 5000 nM | CC(C)(O)c1ncc(C(=O)N2CCc3[nH]cnc3[C@@H]2c2nc3c(F)cccc3s2)s1 [Example 1478, (R)-(4-(4-fluorobenzo[d]thiazol-2-yl)-6,7-dihydro-1H-imidazo[4,5-c]pyridin-5(4H)-yl)(2-(2-hydroxypropan-2-yl)thiazol-5-yl)methanone]
500 to 1000 nM | CC(C)(O)c1ncc(C(=O)N2CCc3[nH]cnc3[C@H]2c2nc3c(F)cccc3s2)o1 [Example 1483, (S)-(4-(4-fluorobenzo[d]thiazol-2-yl)-6,7-dihydro-1H-imidazo[4,5-c]pyridin-5(4H)-yl)(2-(2-hydroxypropan-2-yl)oxazol-5-yl)methanone]
1000 to 5000 nM | CC(C)(O)c1ncc(C(=O)N2CCc3[nH]cnc3[C@@H]2c2nc3c(F)cccc3s2)o1 [Example 1484, (R)-(4-(4-fluorobenzo[d]thiazol-2-yl)-6,7-dihydro-1H-imidazo[4,5-c]pyridin-5(4H)-yl)(2-(2-hydroxypropan-2-yl)oxazol-5-yl)methanone]
500 to 1000 nM | CC(C)(F)c1ncc(C(=O)N2CCc3[nH]cnc3[C@@H]2c2nc3c(F)cccc3s2)s1 [Example 1485, (R)-(4-(4-fluorobenzo[d]thiazol-2-yl)-6,7-dihydro-1H-imidazo[4,5-c]pyridin-5(4H)-yl)(2-(2-fluoropropan-2-yl)thiazol-5-yl)methanone]
< 500 nM | CC(C)(F)c1ncc(C(=O)N2CCc3[nH]cnc3[C@H]2c2nc3c(F)cccc3s2)s1 [Example 1486, (S)-(4-(4-fluorobenzo[d]thiazol-2-yl)-6,7-dihydro-1H-imidazo[4,5-c]pyridin-5(4H)-yl)(2-(2-fluoropropan-2-yl)thiazol-5-yl)methanone]
< 500 nM | CC(C)(F)c1ncc(C(=O)N2CCc3[nH]cnc3[C@H]2c2nc3c(F)cccc3s2)o1 [Example 1487, (S)-(4-(4-fluorobenzo[d]thiazol-2-yl)-6,7-dihydro-1H-imidazo[4,5-c]pyridin-5(4H)-yl)(2-(2-fluoropropan-2-yl)oxazol-5-yl)methanone]
500 to 1000 nM | CC(C)(F)c1ncc(C(=O)N2CCc3[nH]cnc3[C@@H]2c2nc3c(F)cccc3s2)o1 [Example 1488, (R)-(4-(4-fluorobenzo[d]thiazol-2-yl)-6,7-dihydro-1H-imidazo[4,5-c]pyridin-5(4H)-yl)(2-(2-fluoropropan-2-yl)oxazol-5-yl)methanone]
< 500 nM | Cc1nc(C(C)(C)F)oc1C(=O)N1CCc2[nH]cnc2[C@H]1c1nc2ccccc2s1 [Example 1497]
1000 to 5000 nM | Cc1nc(C(C)(C)F)oc1C(=O)N1CCc2[nH]cnc2[C@@H]1c1nc2ccccc2s1 [Example 1498, (R)-(4-(benzo[d]thiazol-2-yl)-6,7-dihydro-1H-imidazo[4,5-c]pyridin-5(4H)-yl)(2-(2-fluoropropan-2-yl)-4-methyloxazol-5-yl)methanone]

Further lines, the compound ahead of its results:

SMILES | AC50
CC(C)(O)c1ccc2c(C(=O)N3CCc4[nH]cnc4[C@H]3c3nc4ccccc4s3)cnn2c1 [Example 1473] | < 500 nM
CC(C)(O)c1ccc2c(C(=O)N3CCc4[nH]cnc4[C@@H]3c3nc4ccccc4s3)cnn2c1 [Example 1474, (R)-(4-(benzo[d]thiazol-2-yl)-6,7-dihydro-1H-imidazo[4,5-c]pyridin-5(4H)-yl)(6-(2-hydroxypropan-2-yl)pyrazolo[1,5-a]pyridin-3-yl)methanone] | 1000 to 5000 nM
CC(C)(O)c1c(Br)ccc2c(C(=O)N3CCc4[nH]cnc4[C@H]3c3nc4ccccc4s3)cnn12 [Example 1475] | < 500 nM
CC(C)(O)c1c(Br)ccc2c(C(=O)N3CCc4[nH]cnc4[C@@H]3c3nc4ccccc4s3)cnn12 [Example 1476, (R)-(4-(benzo[d]thiazol-2-yl)-6,7-dihydro-1H-imidazo[4,5-c]pyridin-5(4H)-yl)(6-bromo-7-(2-hydroxypropan-2-yl)pyrazolo[1,5-a]pyridin-3-yl)methanone] | 1000 to 5000 nM
CC(C)(F)c1ccc2c(C(=O)N3CCc4[nH]cnc4[C@H]3c3nc4ccccc4s3)cnn2c1 [Example 1479] | < 500 nM
CC(C)(F)c1ccc2c(C(=O)N3CCc4[nH]cnc4[C@@H]3c3nc4ccccc4s3)cnn2c1 [Example 1480, (R)-(4-(benzo[d]thiazol-2-yl)-6,7-dihydro-1H-imidazo[4,5-c]pyridin-5(4H)-yl)(6-(2-fluoropropan-2-yl)pyrazolo[1,5-a]pyridin-3-yl)methanone] | 1000 to 5000 nM
CC(C)(O)c1cccc2c(C(=O)N3CCc4[nH]cnc4[C@H]3c3nc4ccccc4s3)cnn12 [Example 1481] | < 500 nM
CC(C)(O)c1cccc2c(C(=O)N3CCc4[nH]cnc4[C@@H]3c3nc4ccccc4s3)cnn12 [Example 1482, (R)-(4-(benzo[d]thiazol-2-yl)-6,7-dihydro-1H-imidazo[4,5-c]pyridin-5(4H)-yl)(7-(2-hydroxypropan-2-yl)pyrazolo[1,5-a]pyridin-3-yl)methanone] | 1000 to 5000 nM
CC(C)(F)c1ccc2c(C(=O)N3CCc4[nH]cnc4[C@H]3c3nc4c(F)cccc4s3)cnn2c1 [Example 1489, (S)-(4-(4-fluorobenzo[d]thiazol-2-yl)-6,7-dihydro-1H-imidazo[4,5-c]pyridin-5(4H)-yl)(6-(2-fluoropropan-2-yl)pyrazolo[1,5-a]pyridin-3-yl)methanone] | 500 to 1000 nM
CC(C)(F)c1ccc2c(C(=O)N3CCc4[nH]cnc4[C@@H]3c3nc4c(F)cccc4s3)cnn2c1 [Example 1490, (R)-(4-(4-fluorobenzo[d]thiazol-2-yl)-6,7-dihydro-1H-imidazo[4,5-c]pyridin-5(4H)-yl)(6-(2-fluoropropan-2-yl)pyrazolo[1,5-a]pyridin-3-yl)methanone] | 1000 to 5000 nM
Fc1ccc(-c2nnc(N3CCc4[nH]cnc4[C@H]3c3nc4ccccc4s3)o2)cc1 [Example 1491] | < 500 nM
Fc1ccc(-c2nnc(N3CCc4[nH]cnc4[C@@H]3c3nc4ccccc4s3)o2)cc1 [Example 1492, (R)-2-(4-(benzo[d]thiazol-2-yl)-6,7-dihydro-1H-imidazo[4,5-c]pyridin-5(4H)-yl)-5-(4-fluorophenyl)-1,3,4-oxadiazole] | 500 to 1000 nM
O=C(c1ocnc1C(F)(F)F)N1CCc2[nH]cnc2[C@H]1c1nc2c(F)cccc2s1 [Example 1493, (S)-(4-(4-fluorobenzo[d]thiazol-2-yl)-6,7-dihydro-1H-imidazo[4,5-c]pyridin-5(4H)-yl)(4-(trifluoromethyl)oxazol-5-yl)methanone] | < 500 nM
O=C(c1ocnc1C(F)(F)F)N1CCc2[nH]cnc2[C@@H]1c1nc2c(F)cccc2s1 [Example 1494, (R)-(4-(4-fluorobenzo[d]thiazol-2-yl)-6,7-dihydro-1H-imidazo[4,5-c]pyridin-5(4H)-yl)(4-(trifluoromethyl)oxazol-5-yl)methanone] | < 500 nM
O=C(c1ocnc1C1CC1)N1CCc2[nH]cnc2[C@H]1c1nc2c(F)cccc2s1 [Example 1495] | < 500 nM
O=C(c1ocnc1C1CC1)N1CCc2[nH]cnc2[C@@H]1c1nc2c(F)cccc2s1 [Example 1496, (R)-(4-cyclopropyloxazol-5-yl)(4-(4-fluorobenzo[d]thiazol-2-yl)-6,7-dihydro-1H-imidazo[4,5-c]pyridin-5(4H)-yl)methanone] | 1000 to 5000 nM
